Results: patent US20250144168A1, “LANTHIPEPTIDES AND METHODS OF USE” (priority 2022, published 2025)
Square brackets hold non-standard residues; d marks the D form. Ends that are not written are not given here. pT = C[C@@H](OP(=O)(O)O)[C@H](N)C(=O)O

Tests used:
[1] = test system: M. luteus; assay: Zone of inhibition of the isolated peptides (spot-on-lawn); assay type: cell-based; details: lantibiotic-sensitive target M. luteus
Description: Pure and homogenized SALI-10 colonies were selected to inoculate 10 ml of TSB supplemented with 2% yeast extract. The fermentation was carried out overnight at 37° C. with 5% CO2 for 18 h. The produced culture was used to inoculate 20 Petri dishes (100 mm), each containing 20 mL of TSA supplemented with 2% yeast extract and 0.2% CaCO3 and incubated as mentioned above (step 1). The agar cultures were then cut into small pieces and put into 250 mL centrifugation bottles. The bottles were incubated at −80° C. for 18 h and thawed immediately in a 70° C. water bath to produce liquid material. The liquid material was then collected by centrifugation, and the resultant supernatant was extracted with one volume of chloroform. The white precipitate from chloroform extraction was dried and resuspended in 2 ml of 35% acetonitrile in water (v/v). Centrifugation was performed to remove insoluble material to produce a clear peptide extract (we call it material A). The process was repeated with induction procedure by adding 50 μl of material A to 50 ml of TSB supplemented with yeast extract and inoculating this media with SALI-10 strain by repeating step 1 and generating 300 induced agar cultures instead of 20. The induced and chloroform extracted peptide was dried as in step 1 and resuspended in 20 ml of 35% ACN in water (v/v) supplemented with 0.1% TFA. The peptides preparation was processed via solid-phase extraction using C18 Sep-Pak® column (Waters, USA) prewashed with methanol and water. After loading the peptides sample, the column was washed with 10 mL of increasing methanol concentrations (10%, 30%, 50%, 70%). Active peptides were eluted with 95% methanol supplemented with 0.1% TFA. The peptides were finally purified using HPLC and C18-Reversed Phase chromatography as mentioned previously. Eluted fractions (1 ml per minute) were tested for antimicrobial activity against the sensitive strain M. luteus ATCC10240 using the spot-on-lawn method.

[2] = test system: CXCL10 and TGM2 gene expression in M1 macrophages; assay: Macrophage gene expression assay (CXCL10, TGM2); assay type: cell-based; details: 40 μg/mL
[3] = test system: isolated human neutrophils; assay: Neutrophil chemotaxis assay (Zigmond chamber); assay type: cell-based
Description: A suspension of 1×10^6 human PMNs in 100 μL HBSS containing 1% gelatin (Sigma-Aldrich) was placed on a 5% bovine serum albumin-coated 22×40 mm glass coverslip and incubated for 10 minutes at 37° C. Coverslips were then inverted onto a Zigmond chamber. Hundred microliters of HBSS and 100 μL HBSS containing N-formyl-methionyl-leucyl-phenylalanine (fMLP) 10^-6M or different concentrations of salivaricin 10 were added to the left and right chambers, respectively. PMN migration across the chamber was recorded with time-lapse of video microscopy at 20 second intervals for a period of 10 minutes using a Zeiss Motorized AxioVert (ZEISS). Captured images were analyzed using cell-tracking software (Retrac, v2.1.0.).

[4] = test system: human whole blood neutrophils and monocytes; assay: Whole blood phagocytosis (pHrodo) and CD marker flow cytometry; assay type: cell-based; details: N-terminal analogues, unlike full-length salivaricin 10
Excerpt: Neutrophils and monocytes display different activation states characterized by expression levels of cell surface CD marker in the oral cavity depending on the bacteria that they are interacting with. In health, neutrophils in the oral cavity are in a parainflammatory state, and with dysbiosis neutrophil phenotypes change towards a proinflammatory state. To determine if salivaricin 10 can prime neutrophils to augment pathogen elimination through phagocytosis, the surface expression of specific activation CD markers was assessed on human and murine neutrophils stimulated either with pHrodo (pH-sensitive, heat killed E. coli) alone or with salivaricin 10 and pHrodo. […]
SONY SA3800 flow cytometer was used to acquire the data. […] To validate the gating strategy and antibody labeling FMO (fluorescence minus one) controls were used. […]
Data were analyzed by FlowJo software (v10.8; Tree Star). The mean fluorescence intensities (MFIs) for each CD marker were measured. Significant differences (P<0.05) were determined using GraphPad Prism 9 (GraphPad Software, Inc.). for the in-vitro human blood and mouse bone marrow assay paired Student's t-test (n=3) was used for the statistical analysis. […]

[5] = test system: saliva-derived multispecies biofilms; assay: Preformed saliva-derived multispecies biofilm, Live/Dead confocal microscopy; assay type: cell-based, human saliva bacteria; details: salivaricin 10 at 25 and 50 μg·ml^−1; nisin A at 50 μg·ml^−1; 20 min
Description: Biofilms were formed ex-vivo using cell-free saliva as a medium and total salivary cell as inoculum (from healthy subjects). Twenty-four hours pre-formed multispecies biofilms grown anaerobically were treated with either nisin A (50 μg·ml^−1) or two concentrations of salivaricin 10 (25 and 50 μg·ml^−1) for a time exposure of 20 min. […] Salivaricin 10 penetrated saliva-derived multispecies biofilms and effectively killed the bacterial cells within (labeled with PI, lighter gray). No such effect was noticed with untreated (PBS) biofilms controls where the viable cells labeled mainly with Syto9, black. the ratio of live to dead cells decreased by a factor of 6 times compared to PBS treated conditions. […] This dose-dependent reduction in the oral biofilm thickness was reported previously for nisin A [27].
12. Antimicrobial Activity Against Preformed Biofilms (Saliva-Derived De Novo Model)
Saliva-derived biofilms were established in 24 well glass bottom sensoplates (Greiner Bio-One, Monroe, NC, USA) as mentioned previously. […] The mean Intensity of pixels for viable signals (Syto-9; live) and (PI; dead) were measured within biofilm areas of each image with the slices containing the highest respective signal intensity using custom Fiji (ImageJ). […] All quantifications and statistical calculations are based on 10-15 images and 5-10 stacks for each repeat (three repeats). […]

[6] = test system: saliva-derived multispecies biofilms; assay: Preformed saliva-derived multispecies biofilm, 16S rRNA gene sequencing; assay type: cell-based, human saliva bacteria
Excerpt: 13. 16S rRNA Gene Sequencing […] 14. […] The UNOISE pipeline, available through […]11.0.667 and […]2.10.4, was used for sequence analysis. […] 5, a -[…] […] 1.0.

Compound: GWSTAVRLTVQGRCGWWFTHSYECTSPNVRCG (cysteine pairing not given here; also: lanthionine modifications; listed as Streptococcus salivarius) [SrnA4]
- antimicrobial activity (zone of inhibition) of the isolated peptide [1]: Reduced antimicrobial activity

Compound: GWFTAVQLTLAGRCGRWFTGSFECTTNNVKCG (cysteine pairing not given here; also: lanthionine modifications; listed as Streptococcus salivarius) [SrnA1, lanthipeptide of salivaricin 10, phenylalanine at position 22]
- antimicrobial activity (zone of inhibition) of the isolated peptide [1]: reduced

Compound: GWFTAVQLTLAGRCGRWFTGSYECTTNNVKCG (cysteine pairing not given here; also: lanthionine modifications; listed as Streptococcus salivarius) [SrnA2, major lanthipeptide of salivaricin 10, tyrosine at position 22]
- antimicrobial activity (zone of inhibition) of the isolated peptide [1]: more extensive zone of inhibition

Compound: NH2-GWFTAVQL-COOH (H-GWF[pT]AVQL-OH; SMILES CC(C)C[C@H](NC(=O)[C@H](CCC(N)=O)NC(=O)[C@@H](NC(=O)[C@H](C)NC(=O)[C@@H](NC(=O)[C@H](Cc1ccccc1)NC(=O)[C@H](Cc1c[nH]c2ccccc12)NC(=O)CN)[C@@H](C)OP(=O)(O)O)C(C)C)C(=O)O; listed as Streptococcus salivarius) [p(1-8) Sali10, chemically synthesized eight N-terminal unbridged residues of SrnA1 and SrnA2 with pThr4]
- gene expression of CXCL10 (M1 macrophage biomarker) [2]: downregulated
- gene expression of TGM2 (M2 macrophage biomarker) compared to M1 control cells [2]: upregulated
- neutrophil chemotaxis of the N-terminal tail analogues ([3]; 40 μg/mL, compared with full-length salivaricin 10): very similar activity to the full-length salivaricin 10
- effects on the neutrophils' CD marker expression [4]: Neither p (1-8) Sali10 (SEQ ID NO: 16) nor np (1-8) Sali10 showed effects

Compound: nisin A
- damage to biofilm architecture (confocal images) [5]: significant and critical damage to the biofilm architecture
- S. gordonii, S. parasanguinis levels in the biofilm [6]: strongly inhibited
- commensal species of the genera Veillonella, Streptococcus and Haemophilus in the biofilm ([6]; salivaricin 10 at 25 μg and 50 μg): disrupted the indigenous oral biofilm, including beneficial commensals

Compound: CSCC[C@H](NC=O)C(=O)N[C@@H](CC(C)C)C(=O)N[C@@H](Cc1ccccc1)C(=O)O [fMLP, N-formyl-methionyl-leucyl-phenylalanine, reference compound]
- neutrophil migration speed ([3]; control peptide): ~11 μm/minute
